Values quoted from earlier work in patent US20200061085A1, “COMPOSITION FOR TREATMENT, INHIBITION AND ATTENUATION OF MELANOMA VIRUS AND PREVENTION OF SKIN CANCERS” (priority 2018, published 2020).

Conditions: STS given exogenously, 90 years of cumulative uses (renal, cyanide, eclampsia)

In the case of sodium thiosulfate [STS], the fatalities is listed as “no fatalities”.
